Experimental data reported in PubChem BioAssay AID2060491 (Molecular Pharmacology Branch, DTP, NCI, 2025).

System: 857933-349-R-J2-PDC complex spheroids, viability
Test: Anticancer human tumor 857933-349-R-J2-PDC patient-derived colon adenocarcinoma cell line growth inhibition [GQUAD]
Conditions: for IC50: curve of first compound; for viability, T/C: stronger effect = lower value
Text: DNA G-quadruplex Stabilizer Agents in Combinations in Complex Spheroids
A high-throughput screen of multi-cell type tumor spheroids was designed to identify active combinations of DNA G-quadruplex stabilizer agents and targeted small molecules. Complex spheroids include a stromal component modeled by human endothelial cells (HUVEC) and fibroblasts modeled by human mesenchymal stem cells (MSCs). The concentration ranges selected for each drug and investigational agent were based upon clinically achievable concentrations if the clinical Cmax of the agent was known.
Compounds. The drugs and investigational agents: pidnarulex (CX-5461; NSC782164), APTO-253 (NSC789042), BRACO-19 (NSC847499), peposertib (NSC802822), ceralasertib (NSC780249), elimusertib (NSC800525), camonsertib (NSC841442), AZD-1390 (NSC803789), olaparib (NSC753686), talazoparib (NSC767125), ART-558 (NSC835418), sotorasib (NSC818433), MRTX-1133 (NSC836407), SN-38 (NSC673596), topotecan (NSC609699), etoposide (NSC141540), doxorubicin (NSC123127), gemcitabine (NSC613327), 5-fluorouracil (NSC19893), paclitaxel (NSC125973), vemurafenib (NSC761431), panobinostat (NSC761190), R-306465 (JNJ-16241199; NSC773264), adavosertib (NSC754352), TP-3654 (NSC805149), carboplatin (NSC241240), KSQ-4279 (NSC840948), and staurosporine (NSC755774) were obtained from the National Cancer Institute (NCI) Developmental Therapeutics Program Chemical Repository (34). The FDA-approved anticancer drug set is available from the NCI Developmental Therapeutics Program. […] The stock solutions were prepared in dimethyl sulfoxide (DMSO, Sigma-Aldrich, St. Louis, MO, cat. D2650) at 800-fold the tested concentration and stored at -70 degrees C prior to their use. All drugs and investigational agents were tested over a range starting from a high concentration at or near the clinical Cmax and decreasing in half-log increments. If the clinical Cmax for an agent had not been determined, the highest concentration tested was 10 microM.
2.3 Cell Culture. All cells were maintained in an incubator at 37 degrees C and 5% CO2 with 95% humidity. The PDC lines were cultured according to standard operating procedures established by the NCI PDMR. All PDCs were thawed and cultured in Matrigel-coated flasks prepared with a working solution of 1X Ham's F-12 nutrient mix, without supplementation (Invitrogen, cat. 11765054), 100 U/mL penicillin-streptomycin (Invitrogen, cat. 15140122), and 2.5% Matrigel (Corning Inc., cat. 354248) for the first three passages. The 857933-349-R-J2-PDC line was cultured in 6C/Colon 1B media, which includes advanced DMEM/F-12 (Thermo Fisher Scientific, cat. 12634028), 10 mM HEPES (Thermo Fisher Scientific, cat. 15630080), 1X GlutaMAX supplement (Thermo Fisher Scientific, cat. 35050061), 0.1 mg/mL primocin (InvivoGen, cat. ant-pm-2), 10% defined fetal bovine serum, heat inactivated (HyClone Laboratories Inc., cat. SH30070.03HI), 50% L-WRN conditioned media (ATCC, cat. CRL-3276), 1.25 mM N-Acetyl-L-cysteine (Sigma-Aldrich, cat. A9165), 10 mM nicotinamide (Sigma-Aldrich, cat. N0636), 1X B-27 supplement (Thermo Fisher Scientific, cat. 17504044), 1X N-2 supplement (Thermo Fisher Scientific, cat. 17502048), 10 microM Y-27632 dihydrochloride (Tocris Bioscience, cat. 1254), and 50 ng/mL human EGF recombinant protein (Thermo Fisher Scientific, cat. PHG0311). The 485176-168-R4-J1-PDC line was cultured in Panc media, which includes all 6C/Colon 1B media components plus 100 ng/mL human FGF-10 (Thermo Fisher Scientific, cat. 100-26), 500 nM SB-431542 (Selleckchem, cat. S1067), and gastrin (Tocris, cat. 3006).
[…]
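Also: spheroids exposed to compounds for one week before readout.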
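For viability, T/C in this document: percent viability relative to vehicle DMSO wells taken as 100%.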

Question: Which results are given for `CC(C)(O)C1CCC(Nc2ccc3ncc(-c4cccc(C(F)(F)F)c4)n3n2)CC1` (configuration not stated) + Cc1cnc(CNC(=O)c2c(=O)c3ccc(N4CCCN(C)CC4)nc3n3c2sc2ccccc23)cn1?
Answer: IC50 (second compound 0.0316 µM): 487 nM; IC50 (second compound 0.1 µM): 151 nM; IC50 (second compound 0.316 µM): < 31.6 nM; IC50 (second compound 1 µM): < 31.6 nM; IC50 (second compound 3.16 µM): < 31.6 nM; IC50 (second compound 10 µM): < 31.6 nM; viability, T/C (second compound 0.0316 µM, first compound 0.0316 µM): 86.5%; viability, T/C (second compound 0.0316 µM, first compound 0.1 µM): 76%; viability, T/C (second compound 0.0316 µM, first compound 0.316 µM): 73.6%; viability, T/C (second compound 0.0316 µM, first compound 1 µM): 11.1%; viability, T/C (second compound 0.0316 µM, first compound 3.16 µM): 0.4%; viability, T/C (second compound 0.0316 µM, first compound 10 µM): 0.23%; viability, T/C (second compound 0.1 µM, first compound 0.0316 µM): 53.4%; viability, T/C (second compound 0.1 µM, first compound 0.1 µM): 57.2%; viability, T/C (second compound 0.1 µM, first compound 0.316 µM): 41.4%; viability, T/C (second compound 0.1 µM, first compound 1 µM): 14%; viability, T/C (second compound 0.1 µM, first compound 3.16 µM): 0.2%; viability, T/C (second compound 0.1 µM, first compound 10 µM): 0.19%; viability, T/C (second compound 0.316 µM, first compound 0.0316 µM): 16.1%; viability, T/C (second compound 0.316 µM, first compound 0.1 µM): 12.6%; viability, T/C (second compound 0.316 µM, first compound 0.316 µM): 8.9%; viability, T/C (second compound 0.316 µM, first compound 1 µM): 7.61%; viability, T/C (second compound 0.316 µM, first compound 3.16 µM): 0.11%; viability, T/C (second compound 0.316 µM, first compound 10 µM): 0.07%; viability, T/C (second compound 1 µM, first compound 0.0316 µM): 3.09%; viability, T/C (second compound 1 µM, first compound 0.1 µM): 3%; viability, T/C (second compound 1 µM, first compound 0.316 µM): 2.95%; viability, T/C (second compound 1 µM, first compound 1 µM): 3.84%; viability, T/C (second compound 1 µM, first compound 3.16 µM): 0.05%; viability, T/C (second compound 1 µM, first compound 10 µM): 0.07%; viability, T/C (second compound 3.16 µM, first compound 0.0316 µM): 1.54%; viability, T/C (second compound 3.16 µM, first compound 0.1 µM): 1.85%; viability, T/C (second compound 3.16 µM, first compound 0.316 µM): 2.05%; viability, T/C (second compound 3.16 µM, first compound 1 µM): 1.16%; viability, T/C (second compound 3.16 µM, first compound 3.16 µM): 0.11%; viability, T/C (second compound 3.16 µM, first compound 10 µM): 0.12%; viability, T/C (second compound 10 µM, first compound 0.0316 µM): 0.23%; viability, T/C (second compound 10 µM, first compound 0.1 µM): 0.19%; viability, T/C (second compound 10 µM, first compound 0.316 µM): 0.3%; viability, T/C (second compound 10 µM, first compound 1 µM): 0.28%; viability, T/C (second compound 10 µM, first compound 3.16 µM): 0.22%; viability, T/C (second compound 10 µM, first compound 10 µM): 0.21%
